The structures appear in SMILES notation.

In assay [1] the target is Carbonic anhydrase 1 (Homo sapiens) (UniProt P00915).
The target of assay [2] is Carbonic anhydrase 2 (Homo sapiens) (UniProt P00918).
In assay [3] the target is Carbonic anhydrase 5B, mitochondrial (Homo sapiens) (UniProt Q9Y2D0).
Chain of Carbonic anhydrase 5B, mitochondrial (Homo sapiens) (Q9Y2D0 whole entry): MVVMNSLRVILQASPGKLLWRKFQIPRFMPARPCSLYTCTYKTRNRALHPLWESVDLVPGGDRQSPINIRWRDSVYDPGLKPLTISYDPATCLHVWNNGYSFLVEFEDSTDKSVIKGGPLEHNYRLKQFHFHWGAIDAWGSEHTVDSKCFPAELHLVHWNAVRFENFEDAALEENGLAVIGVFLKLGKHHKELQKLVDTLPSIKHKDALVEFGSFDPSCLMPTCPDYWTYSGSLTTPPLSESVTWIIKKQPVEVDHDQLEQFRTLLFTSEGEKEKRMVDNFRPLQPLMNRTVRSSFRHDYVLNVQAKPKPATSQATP
Description: Inhibition of human recombinant carbonic anhydrase 5B by stopped flow CO2 hydration method

Chain of Carbonic anhydrase 1 (Homo sapiens) (P00915 2-261 limits assumed): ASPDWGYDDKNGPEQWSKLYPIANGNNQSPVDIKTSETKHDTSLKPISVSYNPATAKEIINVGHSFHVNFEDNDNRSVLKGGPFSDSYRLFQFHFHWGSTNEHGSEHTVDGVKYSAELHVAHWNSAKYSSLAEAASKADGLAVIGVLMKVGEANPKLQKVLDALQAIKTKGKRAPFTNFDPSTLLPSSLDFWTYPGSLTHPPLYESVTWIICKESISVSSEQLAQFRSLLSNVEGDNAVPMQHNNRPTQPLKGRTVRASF

With `O=C(Cc1ccc(O)c(Cl)c1)NCc1ccccc1`, the Ki in assay [1] came to 10.5 µM; in assay [2], 11.4 µM; in assay [3] it was 0.085 µM.
`CCCCNC(=O)Cc1ccc(O)c(Cl)c1`: the Ki in assay [1] was 10.7 µM; in assay [2] it was 9.4 µM; in assay [3] it was 0.081 µM.
Consider `COc1cc(/C=C2\N=C(N)NC2=O)ccc1O`, for which the Ki in assay [1] amounted to 10.5 µM; in assay [2], 9.6 µM; in assay [3] it was 0.07 µM.
For `O=C(O)Cc1ccc(O)cc1`, the figures for the inhibition constant Ki in assay [1], in assay [2] and in assay [3] were 309 µM, 10.3 µM and 0.107 µM, respectively.
`COc1cc(C[C@@H](C)[C@H](C)Cc2ccc(O)c(OC)c2)ccc1O`: the results for the Ki in assay [1], in assay [2] and in assay [3] were 307 µM, 230 µM and 0.071 µM, respectively.
Regarding `OCCc1ccc(O)cc1`, the Ki in assay [1] was 430 µM; in assay [2], 8.7 µM; in assay [3], 0.105 µM.
`COCCNC(=O)Cc1ccc(O)c(Cl)c1`: the results for the inhibitory constant (Ki) in assay [1], in assay [2] and in assay [3] were 158 µM, 10.4 µM and 0.084 µM, respectively.
Regarding `COc1cc([C@@H]2[C@@H](C)[C@@H](C)[C@@H]2c2ccc(O)c(OC)c2)ccc1O`, the Ki in assay [1] stood at 354 µM; in assay [2], 12.1 µM; in assay [3], 0.079 µM.
In the same order, the values of `O=C(Cc1ccc(O)c(Cl)c1)NCCc1ccccc1` are 9.6 µM, 9.8 µM and 0.091 µM.
As for `COC(=O)/C=C/C(=O)O`, the Ki in assay [1] came to 284 µM; in assay [2] it was 7.5 µM; in assay [3], 0.098 µM.
In the same order, the values of `O=C(O)/C=C/C(=O)O` are 395 µM, 10.5 µM and 0.09 µM.
With `COc1cc([C@@H]2[C@@H](C)[C@H](C)[C@H]2c2ccc(O)c(OC)c2)ccc1O`, the Ki amounted to 368 µM in assay [1], 11.7 µM in assay [2] and 0.069 µM in assay [3].

The term Ki denotes a measure of affinity in units of concentration, obtained from inhibition or displacement. Higher therefore signals a looser hold on the target.

(Values after ChEMBL document CHEMBL1157705, “Carbonic anhydrase inhibitors. Identification of selective inhibitors of the human mitochondrial isozymes VA and VB over the cytosolic isozymes I and II from a natural product-based phenolic library” (Bioorg Med Chem, 2010).)
